# Reference: paper PMC12735921, “Evaluation of Antiproliferative Activity and Molecular Modeling Studies of Some Novel Benzimidazolone-Bridged Hybrid Compounds” (Pharmaceuticals, 2025)
# Values joined by “and” are separate entries in the source; they are usually repeats but may differ in a detail not shown here. Equal values may be shown once. Marks after values point to notes of the source that are not given here.
# Legend:
# Assay type in all cases: cell-based, human
# [1] = test system: HeLa cells; assay: LDH leakage assay, HeLa; details: IC50 concentration of compound, 48 h, H2O2 positive control, mean ± SD, n = 3
# Protocol: (§1) One hundred microliters of culture medium was transferred to a new 96-well plate. One hundred microliters of LDH reaction solution was added to each well, and absorbance was measured at 490 nm using an ELISA plate reader (BMG Labtech, Ortenberg, Germany) after 30 min.
# [2] = test system: A549 cells; assay: LDH leakage assay, A549; details: A549, IC50 concentration of compound, 48 h; H2O2 positive control; mean ± SD, n = 3
# Protocol: as §1
# [3] = test system: MCF-7 cells; assay: LDH leakage assay, MCF-7; details: MCF-7, IC50 concentration of compound, 48 h; H2O2 positive control; mean ± SD, n = 3
# Protocol: as §1
# [4] = test system: HeLa cells; assay: Total oxidative status (TOS), HeLa; details: IC50 concentration of compound, 48 h, H2O2 250 µM positive control, mean ± SD, n = 3
# Protocol: (§2) TOS were evaluated using a commercially available kit (Rel Assay Diagnostics®, Gaziantep, Turkey) according to the manufacturer’s instructions. […] The TOS assay quantifies oxidizing agents based on their ability to convert an iron (II) ion chelator complex to iron (III) ions. The results were calibrated against hydrogen peroxide (H2O2, 250 µM) as a positive control for 48 h and expressed as µmol H2O2 equivalents per liter. The analysis was performed in three independent biological replicates (n = 3).
# [5] = test system: A549 cells; assay: Total oxidative status (TOS), A549; details: A549, IC50 concentration of compound, 48 h; H2O2 250 µM positive control; mean ± SD, n = 3
# Protocol: as §2
# [6] = test system: MCF-7 cells; assay: Total oxidative status (TOS), MCF-7; details: MCF-7, IC50 concentration of compound, 48 h; H2O2 250 µM positive control; mean ± SD, n = 3
# Protocol: as §2
# [7] = test system: A549 cells; assay: Intracellular GSH/GSSG ratio, A549; details: A549, IC50 concentration of compound, 48 h; H2O2 positive control; mean ± SD, n = 3
# Protocol: (§3) Intracellular reduced (GSH) and oxidized (GSSG) glutathione levels were measured using the GSH/GSSG Ratio Detection Assay Kit (Cayman Chemical, Ann Arbor, MI, USA, Cat. No: 703002) according to the manufacturer’s protocol. […] After treatment, cells were washed with cold PBS and lysed with MES buffer provided in the kit.
# (§4) To prevent oxidation of GSH to GSSG during processing, samples were deproteinized using the supplied metaphosphoric acid solution and neutralized accordingly. Total glutathione and GSSG levels were measured separately by adding the appropriate buffers and reagents to the wells of a 96-well plate, followed by the addition of DTNB recycling reagent and glutathione reductase. Absorbance was read at 405 nm using a microplate reader (BMG Labtech, Germany). The amount of GSH was calculated by subtracting 2 × GSSG from the total glutathione, and the GSH/GSSG ratio was used to assess intracellular redox status.
# [8] = test system: MCF-7 cells; assay: Intracellular GSH/GSSG ratio, MCF-7; details: MCF-7, IC50 concentration of compound, 48 h; H2O2 positive control; mean ± SD, n = 3
# Protocol: as §3, §4
# [9] = test system: A549 cells; assay: MTT cell viability assay, A549
# Protocol: (§5) Cell viability assay was performed on the human lung cancer (A549) (ATCC CCL-185), human breast cancer (MCF-7) (ATCC-HTB-22), cervical cancer (HeLa) (ATCC-CCL-2), and human embryonic kidney 293 (HEK293) (ATCC-CRL-1573) cell lines, which were purchased from Deutsche Sammlung von Mikroorganismen und Zellkulturen (DSMZ, Braunschweig, Germany). The cells were maintained in Dulbecco’s modified Eagle’s medium (DMEM), supplemented with 10% fetal bovine serum (FBS), 2 mM L-glutamine, 100 U/mL penicillin, and 100 mg/L streptomycin (Biochrom AG, Berlin, Germany) at 37 °C in a humidified atmosphere of 5% CO2.
# (§6) The cytotoxic effect was determined by the MTT (3-(4,5-dimethyl-2-thiazolyl)-2,5-diphenyl-2H-tetrazolium bromide) cell viability assay. Cells were seeded at an initial concentration of 1 × 10^5 cells/mL in 96-well microplates. Cells were then treated with different concentrations (0.5, 5, 10, 25, 50, 100 and 200 µM) of the novel synthesized compounds for 48 h. After the incubation period, the formed formazan crystals were dissolved in dimethyl sulfoxide (DMSO), and the optical density (OD) of the compounds was measured at 570 nm using a spectrophotometer (BMG Labtech, Ortenberg, Germany). Cytotoxicity was expressed as an increase in the mean percentage of cytotoxicity relative to the unexposed control ± standard deviation (SD). […] Control values were set at 0% cytotoxicity. IC50 was calculated by fitting the data to a sigmoidal curve using a four-parameter logistic model and was presented as an average of three independent measurements. […] Doxorubicin was used as a positive control. Each sample was tested in triplicate.
# (§7) To evaluate the selectivity of the tested compound(s) toward cancer cells over normal cells, the Selectivity Index (SI) was calculated using the following formula:SI = IC50 (normal cells)/IC50 (cancer cells)
# (§8) An SI value greater than 2 was considered to indicate selective cytotoxicity, while values below 2 were interpreted as non-selective. Higher SI values reflect greater therapeutic potential due to reduced toxicity toward normal cells.
# [10] = test system: MCF-7 cells; assay: MTT cell viability assay, MCF-7
# Protocol: as §5, §6, §7, §8
# [11] = test system: HeLa cells; assay: MTT cell viability assay, HeLa
# Protocol: as §5, §6, §7, §8
# [12] = test system: HEK 293 cells; assay: MTT cell viability assay, non-cancerous HEK 293; details: Homo sapiens, HEK293, 48 h, mean ± SD, n = 3
# Protocol: as §5
# The cytotoxic effect was determined by the MTT (3-(4,5-dimethyl-2-thiazolyl)-2,5-diphenyl-2H-tetrazolium bromide) cell viability assay. Cells were seeded at an initial concentration of 1 × 10^5 cells/mL in 96-well microplates. Cells were then treated with different concentrations (0.5, 5, 10, 25, 50, 100 and 200 µM) of the novel synthesized compounds for 48 h. After the incubation period, the formed formazan crystals were dissolved in dimethyl sulfoxide (DMSO), and the optical density (OD) of the compounds was measured at 570 nm using a spectrophotometer (BMG Labtech, Ortenberg, Germany). Cytotoxicity was expressed as an increase in the mean percentage of cytotoxicity relative to the unexposed control ± standard deviation (SD). […] Control values were set at 0% cytotoxicity. IC50 was calculated by fitting the data to a sigmoidal curve using a four-parameter logistic model and was presented as an average of three independent measurements. […] Each sample was tested in triplicate.
# [13] = test system: HeLa cells; assay: Intracellular GSH/GSSG ratio, HeLa; details: IC50 concentration of compound, 48 h, H2O2 positive control, mean ± SD, n = 3
# Protocol: as §3, §4
# [14] = test system: HeLa cells; assay: Cell cycle analysis (PI staining, flow cytometry), HeLa; details: IC50 concentration, 48 h, mean ± SEM, n = 3
# Protocol: (§9) Cell cycle distribution was assessed by propidium iodide (PI) staining and flow cytometry. HeLa, MCF-7, and A549 cells were seeded in 6-well plates at a density of 1 × 10^5 cells per well and allowed to attach overnight. […] Following exposure, both adherent and floating cells were collected, washed twice with cold phosphate-buffered saline (PBS, pH 7.4), and fixed overnight in 70% cold ethanol at 4 °C. After fixation, the cells were centrifuged and resuspended in 500 µL of PI/RNase staining solution containing 50 µg/mL PI and 100 µg/mL RNase A (Sigma-Aldrich®, St. Louis, MO, USA), followed by incubation in the dark for 30 min at 37 °C. The stained samples were analyzed using a Muse™ Cell Analyzer (Merck, Millipore, Germany) equipped with a 488 nm excitation laser and a 617 nm emission filter. A minimum of 10,000 events per sample were acquired after exclusion of debris and doublets via FSC-A vs. FSC-H gating. The DNA content histograms were generated automatically, and cell populations were expressed as percentages of G0/G1, S, and G2/M phases using the Muse™ Cell Cycle Analysis Software 1.5.0.0. All assays were conducted in triplicate biological repeats (n = 3), and results were reported as mean ± SEM.
# [15] = test system: MCF-7 cells; assay: Cell cycle analysis (PI staining, flow cytometry), MCF-7; details: MCF-7, IC50 concentration, 48 h, mean ± SEM, n = 3
# Protocol: as §9
compound,measurement,setting,value
"OO [Compound H2O2, hydrogen peroxide, reference compound]",LDH,[1],41.5 ± 3.2 ^a µU/mL
same,LDH,[2],40.7 ± 3.0 ^a µU/mL
same,LDH,[3],39.5 ± 2.7 ^a µU/mL
same,TOS,[4],10.4 ± 0.7 ^a µmol H2O2 eq/L
same,TOS,[5],10.5 ± 0.8 ^a µmol H2O2 eq/L
same,TOS,[6],10.1 ± 0.7 ^a µmol H2O2 eq/L
same,GSH/GSSG,[7],7.1 ± 0.9 ^a nmol/mg Protein
same,GSH/GSSG,[8],7.4 ± 0.9 ^a nmol/mg Protein
"O=c1n(Cc2nnc(S)o2)c2cc(Cl)c(Cl)cc2n1Cc1nnc(S)o1 [Compound 7, 5,6-Dichloro-1,3-bis((5-mercapto-1,3,4-oxadiazol-2-yl)methyl)-1H-benzo[d]imidazol-2(3H)-one]",IC50,"[9]; Homo sapiens, A549, MTT, 48 h, mean ± SD, n = 3",27.4 ± 1.58 µM
same,A549 Selectivity Index (SI),[9]; SI = IC50 (HEK 293)/IC50 (A549),1.4
same,IC50,"[10]; Homo sapiens, MCF7, MTT, 48 h, mean ± SD, n = 3",19.1 ± 1.1 µM
same,MCF-7 Selectivity Index (SI),[10]; SI = IC50 (HEK 293)/IC50 (MCF-7),2.01
same,IC50,"[11]; Homo sapiens, HeLa, MTT, 48 h, mean ± SD, n = 3",10.6 ± 0.61 µM
same,HeLa Selectivity Index (SI),[11]; SI = IC50 (HEK 293)/IC50 (HeLa),3.63
same,IC50,[12],38.5 ± 2.2 µM
same,LDH,[1],"30.9 ± 2.7 µU/mL and 30.9 ± 2.7 ^a,b µU/mL"
same,LDH,[3],"25.3 ± 2.0 µU/mL and 25.3 ± 2.0 ^a,b µU/mL"
same,TOS,[4],"8.6 ± 0.7 µmol H2O2 eq/L and 8.6 ± 0.7 ^a,b µmol H2O2 eq/L"
same,TOS,[6],"7.6 ± 0.6 µmol H2O2 eq/L and 7.6 ± 0.6 ^a,b µmol H2O2 eq/L"
same,GSH/GSSG,[13],9.4 ± 1.0
same,GSH/GSSG,[8],"11.3 ± 1.0 nmol/mg Protein and 11.3 ± 1.0 ^a,b nmol/mg Protein"
same,cells in G0/G1 phase,[14],38.4 ± 2.1%
same,cells in G2/M phase,[14],38.4 ± 1.9%
same,cells in S phase,[14],23.2 ± 1.5%
same,cells in G0/G1 phase,[15],69.0 ± 2.0%
same,cells in G2/M phase,[15],13.8 ± 1.2%
same,cells in S phase,[15],17.2 ± 1.3%
